According to patent US9839618B2, “Compositions and methods relating to proliferative diseases” (The Penn State Research Foundation, priority 2010, dated 2017):
Like-named read-outs stand apart in the source and are kept apart here.

Key:
[1] = system: FF2441 normal human fibroblasts; test: MTS assay viability IC50, normal fibroblasts; format: cell-based; settings: read-out: IC50 Normal fibroblast FF2441
Experimental: (§1) The efficacy of leelamine to kill other cancer types is measured and the IC50 for cell lines derived from carcinomas of breast, lung, prostate, connective tissue, pancreas and colon determined. The MTS assay as described in Sharma, A. et al., Clin Cancer Res, 2009, 15:1674-85; and Madhunapantula, S. V. et al., Mol Cancer Ther, 2008, 7:1297-308 is used to establish the IC50 at 24, 48 and 72 hours of leelamine treatment for normal human epidermal melanocytes (FOM103), normal skin fibroblast cells (FF2441), normal skin keratinocytes (HFK) and compared to melanocytic lesion cells from the radial-, vertical- and metastatic melanoma stages. 5×10^3 cells per well in 100 μL of media are plated and grown in a 96-well plate for 48 to 72 hours and treated with either DMSO vehicle control or 0.62 to 40 μmol/L of leelamine for 24, 48 or 72 hours. IC50 values for each compound in μmol/L for respective cell lines are measured from three independent experiments using GraphPad Prism version 4.01 (GraphPad Software, La Jolla, Calif.). Leelamine is found to be not toxic to normal cells and effective to kill melanoma cells as well as non-melanoma cancer cells as shown in Table 1 in FIG. 20. Leelamine is 3- to 4-fold more specific at killing metastatic melanoma than normal cells, supporting cancer therapeutic utility at concentrations<2 μmol/L.
5×10^3 cells per well in 100 μL of media are plated and grown in a 96-well plate for 48 to 72 hours and treated with either DMSO vehicle control or 0.62 to 40 μmol/L of leelamine for 24, 48 or 72 hours. IC50 values for each compound in μmol/L for respective cell lines are measured from three independent experiments using GraphPad Prism version 4.01 (GraphPad Software, La Jolla, Calif.). […]
(§2) Dehydroabietylamine, its N-substituted derivatives and the corresponding dihydroabietylamine and its N-substituted derivatives are tested for their capability to inhibit cell growth of cancer cell lines, including melanoma (UACC 903, 1205Lu), breast (MCF-7), fibrosarcoma (HT-1080), colon (Caco-2), and prostate (PC-3) cancer cell lines. Viability and IC50 of normal human fibroblasts and cell lines from melanoma and other malignancies following treatment with all the agents are measured using the MTS assay (Promega, Madison, Wis.). Human fibroblast FF2441 cells, metastatic melanoma cell lines 1205 Lu and UACC 903 as well as cancer cell lines representing sarcoma (HT-1080), prostate (PC-3, LNCaP), breast (MCF-7) and lung (A-549) are maintained in DMEM (Invitrogen, Carlsbad, Calif.) supplemented with 10% FBS (Hyclone, Logan, Utah) in a 5% CO2 atmosphere, humidified 37° C. incubator. 5×10^3 cells per well in 100 μL of media are plated and grown in a 96-well plate for 48 to 72 h and treated with either DMSO vehicle control or 0.62 to 40 μmol/L for 24, 48 or 72 h. IC50 values for each compound in […] for respective cell lines are measured from three independent experiments using GraphPad Prism version 4.01 (GraphPad Software, La Jolla, Calif.). FIG. 52 is a graph showing IC50 values for leelamine and compounds 4a, 4b and 5a in treated fibroblasts (FF2441) compared to melanoma cells. Selectivity ratio here is defined as ratio of activity against fibroblasts compared to activity against melanoma cells. Leelamine is relatively selective with a ratio of >6 and >4 for UACC903 and 1205Lu melanoma cells. The selectivity ratio of compound 4a is ˜4 and ˜3 for UACC903 and 1205Lu and for compound 4b is ˜4 for both cell lines. The selectivity ratio of compound 5a is ˜4 for UACC903 and >2 for 1205Lu cells.

[2] = system: 1205 Lu metastatic melanoma cells; test: MTS assay viability IC50, 1205 Lu; format: cell-based, human
Experimental: as §1
(§3) 5×10^3 cells per well in 100 μL of media are plated and grown in a 96-well plate for 48 to 72 hours and treated with either DMSO vehicle control or 0.62 to 40 μmol/L of leelamine for 24, 48 or 72 hours. IC50 values for each compound in μmol/L for respective cell lines are measured from three independent experiments using GraphPad Prism version 4.01 (GraphPad Software, La Jolla, Calif.).
(§4) The IC50 and effect of liposomal preparations of leelamine on viability of normal human melanocytes, fibroblasts and melanoma cells UACC 903 and 1205 Lu are measured using the MTS assay (Promega, Madison, Wis.). Empty liposomes or liposomes containing abietic acid are used as controls. 5×10^3 cells per well in 100 μL of media are plated and grown in a 96-well plate for 48 or 72 hours for melanoma and normal cell lines, respectively. The cells are then treated with 0.62 to 40 μmol/L of liposome alone, a liposomal preparation of abietic acid, or with Nanolipolee-007 for 24 hours. IC50 values for each liposome in μmol/L for respective cell lines are measured from three independent experiments using GraphPad Prism version 4.01 (GraphPad Software, La Jolla, Calif.). Nanolipolee-007 retains the growth inhibitory activity of leelamine in killing melanoma cells in culture and specifically kills melanoma cells compared to normal cells, FIG. 24.
as §2, with “FIG. 52 is a graph showing IC50 values for leelamine and compounds 4a, 4b and 5a in treated fibroblasts (FF2441) compared to melanoma cells. Selectivity ratio here is defined as ratio of activity against fibroblasts compared to activity against melanoma cells. Leelamine is relatively selective with a ratio of >6 and >4 for UACC903 and 1205Lu melanoma cells. The selectivity ratio of compound 4a is ˜4 and ˜3 for UACC903 and 1205Lu and for compound 4b is ˜4 for both cell lines. The selectivity ratio of compound 5a is ˜4 for UACC903 and >2 for 1205Lu cells.” left out

[3] = system: UACC 903 metastatic melanoma cells; test: MTS assay viability IC50, UACC 903; format: cell-based, human
Experimental: as §1, §3, §4
as §2, with “FIG. 52 is a graph showing IC50 values for leelamine and compounds 4a, 4b and 5a in treated fibroblasts (FF2441) compared to melanoma cells. Selectivity ratio here is defined as ratio of activity against fibroblasts compared to activity against melanoma cells. Leelamine is relatively selective with a ratio of >6 and >4 for UACC903 and 1205Lu melanoma cells. The selectivity ratio of compound 4a is ˜4 and ˜3 for UACC903 and 1205Lu and for compound 4b is ˜4 for both cell lines. The selectivity ratio of compound 5a is ˜4 for UACC903 and >2 for 1205Lu cells.” left out

[4] = system: melanoma cell lines (UACC 903, 1205Lu); test: MTS assay, melanoma cell lines (cell line not given); format: cell-based, human; settings: Homo sapiens; Example 8
Experimental: The mechanistic basis of leelamine's activity to inhibit melanoma cell growth is determined by examining the effect of leelamine on 1) cell viability using the MTS assay; 2) proliferation using a BrdU incorporation assay; 3) apoptosis using an assay for caspase-3/7 activity; and 4) cell cycle analysis. The MTS assay as described in Sharma, A. et al., Clin Cancer Res, 2009, 15:1674-85; and Madhunapantula, S. V. et al., Mol Cancer Ther, 2008, 7:1297-308 is used to assay cell viability. Rates of proliferation and apoptosis are measured by seeding 5×10^3 cells in 96-well plates, followed by treatment with 0.62 to 10 μmol/L of leelamine for 24 hours. Proliferating and apoptotic cells are quantified using a colorimetric cell proliferation ELISA BrdU kit (Roche diagnostics, Indianapolis, Ind.) or Apo-ONE Homogenous caspase-3/7 assay kit (Promega, Madison, Wis.), respectively, as described in Sharma, A. et al., Clin Cancer Res, 2009, 15:1674-85; and Madhunapantula, S. V. et al., Mol Cancer Ther, 2008, 7:1297-308.
as §2

[5] = Table 4, read-out: IC50 Metastatic Melanoma Cell line 1205Lu
[6] = Table 4, read-out: IC50 Metastatic Melanoma Cell line UACC903
[7] = Homo sapiens, 1205Lu, Table 4, read-out: IC50 Metastatic Melanoma Cell line 1205Lu
[8] = Homo sapiens, 1205Lu, Table 6, read-out: IC50 Metastatic melanoma 1205 Lu
[9] = Homo sapiens, UACC-903, Example 8, read-out: IC50 UACC 903
[10] = Homo sapiens, UACC-903, Table 4, read-out: IC50 Metastatic Melanoma Cell line UACC903
[11] = Homo sapiens, UACC-903, Table 6, read-out: IC50 Metastatic melanoma UACC 903
[12] = Homo sapiens, UACC-903, Table 7, read-out: IC50 (UACC903)
[13] = Homo sapiens, 1205Lu, Example 8, read-out: IC50 1205Lu

CCOC[C@]1(C)CCC[C@]2(C)C3CCC(C(C)C)C=C3C=CC12 (some centres unmarked) [Compound 2a] showed an IC50 ([1]; Table 4) greater than 100 µM, an IC50 [2, 5] greater than 100 µM and an IC50 [3, 6] greater than 100 µM.
CC(C)C1C=C2C=CC3[C@](C)(CO)CCC[C@]3(C)C2CC1 (stereo partly drawn) [Compound 2b, [(1R,4aR)-1,4a-dimethyl-7-(propan-2-yl)-1,2,3,4,4a,4b,5,6,7,100a-decahydrophenanthren-1-yl]methanol] gave an IC50 ([1]; Table 4) greater than 100 µM, an IC50 ([1]; Table 6) greater than 100 µM and an IC50 ([2]; Example 8, read-out: IC50 1205Lu) of 60 µM. It also gave an IC50 [2, 5] of 60.4 ± 1.61 µM, an IC50 ([2]; Table 6, read-out: IC50 Metastatic melanoma 1205 Lu) of 60.4 ± 1.61 µM and an IC50 ([3]; Example 8, read-out: IC50 UACC 903) of 53 µM. The IC50 [3, 6] was 52.6 ± 1.34 µM, the IC50 ([3]; Table 6, read-out: IC50 Metastatic melanoma UACC 903) was 52.6 ± 1.34 µM and the IC50 ([3]; Table 7, read-out: IC50 (UACC903)) was 52.6 µM.
Work on CC(C)C1=CC2=CCC3[C@](C)(CCC[C@@]3(C)C(N)=O)C2CC1 (stereo partly drawn) [Compound 3a, (1R,4aR)-1,4a-dimethyl-7-(propan-2-yl)-1,2,3,4,4a,4b,5,6,10,10a-decahydrophenanthrene-1-carboxamide] yielded an IC50 ([1]; Table 6) greater than 100 µM, an IC50 [2, 7] of 81.1 ± 2.09 µM and an IC50 [2, 8] of 81.1 ± 2.09 µM. It also gave an IC50 [3, 9] of 70 µM, an IC50 [3, 10] of 70.1 ± 1.8 µM and an IC50 [3, 11] of 70.1 ± 1.8 µM. The IC50 [3, 12] was 70.1 µM.
With CNC(=O)[C@]1(C)CCC[C@]2(C)C3CCC(C(C)C)=CC3=CCC21 (stereo partly drawn) [Compound 3b, (1R,4aR)-N,1,4a-trimethyl-7-(propan-2-yl)-1,2,3,4,4a,4b,5,6,10,10a-decahydrophenanthrene-1-carboxamide] the IC50 ([1]; Table 6) was greater than 100 µM, the IC50 [2, 8] was greater than 100 µM and the IC50 [3, 11] was greater than 100 µM. For the same compound, the IC50 [3, 12] was greater than 100 µM and the IC50 [4] was greater than 100 µM.
For CCN(CC)C(=O)[C@]1(C)CCC[C@]2(C)C3CCC(C(C)C)=CC3=CCC21 (stereo partly drawn) [Compound 3c, (1R,4aR)-N,N-diethyl-1,4a-dimethyl-7-(propan-2-yl)-1,2,3,4,4a,4b,5,6,10,10a-decahydrophenanthrene-1-carboxamide], the IC50 [4] was greater than 100 µM.
For CCN(CC)C[C@]1(C)CCC[C@]2(C)C3CCC(C(C)C)=CC3=CCC12 (stereo partly drawn) [Compound 4c, {[(1R,4aR)-1,4a-dimethyl-7-(propan-2-yl)-1,2,3,4,4a,4b,5,6,10,10a-decahydrophenanthren-1-yl]methyl}diethylamine], the IC50 ([1]; Table 6) was greater than 100 µM, the IC50 [2, 13] was 24.3 µM and the IC50 [2, 7] was 24.3 ± 2.5 µM. The IC50 [2, 8] was 24.3 ± 2.5 µM, the IC50 [3, 9] was 24.4 µM and the IC50 [3, 10] was 24.4 ± 1.33 µM. It also gave an IC50 [3, 11] of 24.4 ± 1.33 µM and an IC50 [3, 12] of 24.4 µM.
Work on CC(=O)NC[C@]1(C)CCC[C@]2(C)c3ccc(C(C)C)cc3CCC12 (stereo partly drawn) [Compound 5b, N-{[(1R,4aS)-1,4a-dimethyl-7-(propan-2-yl)-1,2,3,4,4a,9,10,10a-octahydrophenanthren-1-yl]methyl}acetamide] yielded an IC50 ([1]; Table 6) greater than 100 µM, an IC50 [2, 13] greater than 50 µM and an IC50 [2, 7] greater than 50 µM. It also gave an IC50 [3, 9] of 89 µM, an IC50 [3, 11] of 89.4 ± 3.31 µM and an IC50 [3, 12] of 89.4 µM.
Compound CC(C)c1ccc2c(c1)CCC1[C@](C)(CNC(=O)c3ccccc3)CCC[C@]21C (stereo partly drawn) [Compound 5c, N-(((1R,4aS)-7-isopropyl-1,4a-dimethyl-1,2,3,4,4a,9,10,10a-octahydrophenanthren-1-yl)methyl)benzamide] has an IC50 [3, 11] greater than 100 µM, an IC50 [3, 12] greater than 100 µM and an IC50 [4] greater than 100 µM.
Work on CC(C)c1ccc2c(c1)CCC1[C@](C)(CNCc3ccccc3)CCC[C@]21C (stereo partly drawn) [Compound 5d, N-benzyl-1-((1R,4aS)-7-isopropyl-1,4a-dimethyl-1,2,3,4,4a,9,10,10a-octahydrophenanthren-1-yl)methanamine] yielded an IC50 [3, 10] of 6.05 ± 1.32 µM, an IC50 [3, 11] of 6.05 µM and an IC50 [3, 12] of 6.05 µM. For the same compound, the IC50 [4] was 6 µM.
For CC(C)c1ccc2c(c1)CCC1[C@](C)(CNC(c3ccccc3)(c3ccccc3)c3ccccc3)CCC[C@]21C (stereo partly drawn) [Compound 5e, {[(1R,4aS)-1,4a-dimethyl-7-(propan-2-yl)-1,2,3,4,4a,9,10,10a-octahydrophenanthren-1-yl]methyl}(triphenylmethyl)amine], the IC50 [4] was greater than 100 µM.
Work on CC(C)c1ccc2c(c1)CCC1[C@](C)(CNC(=O)C(Br)(Br)Br)CCC[C@]21C (stereo partly drawn) [GPR-5L, N-{[(1R,4aS)-1,4a-dimethyl-7-(propan-2-yl)-1,2,3,4,4a,9,10,10a-octahydrophenanthren-1-yl]methyl}-2,2,2-tribromoacetamide] yielded an IC50 [2, 8] of 1.88 ± 0.21 µM, an IC50 [3, 11] of 1.01 ± 0.08 µM and an IC50 [3, 12] of 1.01 µM.
